What was measured:
Format in all cases: in vivo
Amaranthus retroflexus = assay: Post-emergence foliage spray, pot culture, fresh weight inhibition (Tables 151-206; 20 days); conditions: 20 days
Outline: (§1)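 Pre-germinated seeds (25° C soak 6 h, 28° C dark) grown in pots, thinned to 15 per pot; foliage-sprayed at 4~5-leaf (grasses) or 5~6-leaf (broadleaf) stage, 450 kg/ha spray volume, 0.3 MPa. Agents in acetone diluted with 0.1% Tween-80 water; solvent blank control. Above-ground fresh weight weighed, dead weeds scored zero.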

Capsella bursa-pastoris = assay: as above; conditions: 20 days
Outline: as §1

Echinochloa oryzoides [1] = assay: Soil sealing treatment, pot culture, fresh weight inhibition (Tables 149, 150)
Procedure: (§2) A method for investigating absolute number was employed, wherein whole seedlings of survival weeds were cut off with a blade along the soil surface, and the fresh weight of the weeds was weighed with an analytical balance. For dead weeds, the fresh weight thereof was zero.
(§3) Theoretical fresh weight inhibition rate of a combination of two active ingredients in each group was calculated by the Gowing method (E0=X+Y−X*Y/100), and then compared with an actually measured inhibition rate (E), thereby effect of the combination (hereafter referred to as combined effect) on weeds was evaluated: the value of E-E0, which was greater than 10%, corresponded to a synergistic effect, the value of E-E0, which was less than −10%, corresponded to an antagonistic effect, and the value of E-E0, which was from −10% to 10%, corresponded to an additional effect. […] Wherein, in the formula, X represented the fresh weight inhibition rate of the active ingredient A in a dosage of P, and Y represented the fresh weight inhibition rate of the active ingredient B in a dosage of Q.
(§4) Echinochloa crusgalli var zelayensis were collected in Huai'an of Jiangsu Province; Echinochloa caudate were collected in Pingluo of Ningxia Province; Echinochloa oryzoides were collected in Qiqiha'er of Heilongjiang Province.
(§5) The culture was carried out in a controllable sunlight greenhouse at 20 to 30° C., in natural light, and relative humidity of 57% to 72%. […] The test soil was placed quantitatively to ¾ of the pots and then watered from the bottom of the pots to completely wet the soil to saturation. The pretreated test weed seeds were uniformly sowed on the surface, then covered with 0.5-2 cm soil according to the seed size, and ready-for use 24 hours after sowing.
(§6) The technical materials were all dissolved in acetone, and diluted with an aqueous solution containing 0.1% emulsifier T-80. The dilution is performed as required.
(§7) A ratio of A to the active ingredient B and amounts thereof in each group depends on the characteristics and toxicity of the two agents, as well as the main application purpose of a corresponding formulation. Based on the pre-tests in this study, the dosage of A and the active ingredient B applied alone and in combination were shown in the tables. Water containing the solvent and emulsifier same with the above groups but free of the agents was used as a blank control.
(§8) 3 pots with 30 weed seeds per pot were treated in one treatment with 4 replications per treatment.
(§9) The pots which were sowed and mulched were evenly placed on a platform with an area of 0.5 m^2, and a solution of agents was sprayed on soil surface thereof by the 3WP-2000-type walking spray tower at a dosage of […] and at a spray pressure of 0.3 MPa. After all the solution was sprayed, the valve was closed. After 30 seconds, the door of the spray tower was opened, and the nutritional bowl was taken out. Then the valve was opened, and the spray tube was cleaned by spraying 50 ml of water.
(§10) This section was same as the section 4) in the post-emergence treatment by performing foliage spray, and was not repeated herein.

Echinochloa oryzoides [2] = assay: Post-emergence foliage spray, pot culture, fresh weight inhibition (Tables 1-48, 51-98, 101-148; 24 days)
Outline: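 Pot-grown weeds were thinned to 15 per pot (45 per treatment) and sprayed on foliage at the 5–6-leaf stage for grasses or the 6–7-leaf stage for broadleaves. Agents were dissolved in acetone with 0.1% Tween-80 and applied at 450 kg/ha spray volume and 0.3 MPa. Plants were then kept in a greenhouse. Above-ground fresh weight of survivors, with dead plants counted as zero, gave inhibition versus a solvent/emulsifier blank.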

Digitaria sanguinalis = assay: Post-emergence foliage spray, pot culture, fresh weight inhibition (Tables 151-206; 20 days); conditions: 20 days
Outline: (§11)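 Field-collected weeds grown in pots in a greenhouse (20-30° C., natural light, 57-72% RH), 15 per pot, 3 pots × 4 replicates. Single foliar spray at 4-5 leaves (grasses) or 5-6 leaves (broadleaf) with acetone/0.1% Tween-80 dilutions at 450 kg/ha, 0.3 MPa. Above-ground fresh weight inhibition versus solvent blank at 20 days.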

Eleusine indica = assay: as above; conditions: 20 days
Outline: as §11

Sinapis arvensis = assay: as above; conditions: 20 days
Outline: as §11

Alopecurus japonicus = assay: as above; conditions: 20 days
Outline: as §11

Echinochloa caudate = assay: Soil sealing treatment, pot culture, fresh weight inhibition (Tables 99, 100)
Procedure: as §2, §3, §4, §5, §6, §7, §8, §9, §10

[3] = tested on: Echinochloa crusgalli var. zelayensis; assay: Soil sealing treatment, pot culture, fresh weight inhibition (Tables 49, 50)
Procedure: as §2, §3, §4, §5, §6, §7, §8, §9, §10

**Q.** With `C[C@@H](Oc1nc(F)c(Cl)c(N)c1Cl)C(=O)[O-].[K+]` [Compound A4, A1 potassium salt] as the compound, how does the “Control effect (%) of A applied alone in corresponding dose” value (shortened to “Control effect (%) of A applied alone”) (Amaranthus retroflexus; A 75 g a.i./ha) read?
**A.** 26.7%

**Q.** And the “Control effect (%) of A applied alone” value (Amaranthus retroflexus; A 150 g a.i./ha)?
**A.** 57.2%

**Q.** And the “Control effect (%) of A applied alone” value (Capsella bursa-pastoris; A 75 g a.i./ha)?
**A.** 44.2%

**Q.** What about the “Control effect (%) of A applied alone” value (Capsella bursa-pastoris; A 150 g a.i./ha) of the same compound?
**A.** 67.2%

**Q.** And the “Control effect (%) of A applied alone” value (Echinochloa oryzoides [1]; A 75 g a.i./ha)?
**A.** 18.9%

**Q.** And the “Control effect (%) of A applied alone” value (Echinochloa oryzoides [1]; A 150 g a.i./ha)?
**A.** 42.5%

**Q.** And the “Control effect (%) of A applied alone” value (Echinochloa oryzoides [2]; A 75 g a.i./ha)?
**A.** 52.6%

**Q.** What about the “Control effect (%) of A applied alone” value (Echinochloa oryzoides [2]; A 150 g a.i./ha) of the same compound?
**A.** 74.7%

**Q.** And the “Control effect (%) of A applied alone” value (Echinochloa oryzoides [2]; Table 101, 75 g a.i./ha)?
**A.** 52.6%

**Q.** What about the “Control effect (%) of A applied alone” value (Echinochloa oryzoides [2]; Table 101, 150 g a.i./ha) of the same compound?
**A.** 74.7%

**Q.** And the “Control effect (%) of A applied alone” value (Echinochloa oryzoides [2]; Table 102, 75 g a.i./ha)?
**A.** 52.6%

**Q.** What about the “Control effect (%) of A applied alone” value (Echinochloa oryzoides [2]; Table 102, 150 g a.i./ha) of the same compound?
**A.** 74.7%

**Q.** What about the “Control effect (%) of A applied alone” value (Echinochloa oryzoides [2]; Table 104, 75 g a.i./ha) of the same compound?
**A.** 52.6%

**Q.** What about the “Control effect (%) of A applied alone” value (Echinochloa oryzoides [2]; Table 104, 150 g a.i./ha) of the same compound?
**A.** 74.7%

**Q.** And the “Control effect (%) of A applied alone” value (Echinochloa oryzoides [2]; Table 106, 75 g a.i./ha)?
**A.** 52.6%

**Q.** What about the “Control effect (%) of A applied alone” value (Echinochloa oryzoides [2]; Table 106, 150 g a.i./ha) of the same compound?
**A.** 74.7%

**Q.** What about the “Control effect (%) of A applied alone” value (Echinochloa oryzoides [2]; Table 107, 75 g a.i./ha) of the same compound?
**A.** 52.6%

**Q.** What about the “Control effect (%) of A applied alone” value (Echinochloa oryzoides [2]; Table 107, 150 g a.i./ha) of the same compound?
**A.** 74.7%

**Q.** What about the “Control effect (%) of A applied alone” value (Echinochloa oryzoides [2]; Table 108, 75 g a.i./ha) of the same compound?
**A.** 52.6%

**Q.** What about the “Control effect (%) of A applied alone” value (Echinochloa oryzoides [2]; Table 108, 150 g a.i./ha) of the same compound?
**A.** 74.7%

**Q.** What about the “Control effect (%) of A applied alone” value (Echinochloa oryzoides [2]; Table 109, 75 g a.i./ha) of the same compound?
**A.** 52.6%

**Q.** What about the “Control effect (%) of A applied alone” value (Echinochloa oryzoides [2]; Table 109, 150 g a.i./ha) of the same compound?
**A.** 74.7%

**Q.** What about the “Control effect (%) of A applied alone” value (Echinochloa oryzoides [2]; Table 110, 75 g a.i./ha) of the same compound?
**A.** 52.6%

**Q.** And the “Control effect (%) of A applied alone” value (Echinochloa oryzoides [2]; Table 110, 150 g a.i./ha)?
**A.** 74.7%

**Q.** And the “Control effect (%) of A applied alone” value (Digitaria sanguinalis; A 75 g a.i./ha)?
**A.** 22.2%

**Q.** What about the “Control effect (%) of A applied alone” value (Digitaria sanguinalis; A 150 g a.i./ha) of the same compound?
**A.** 56.4%

**Q.** What about the “Control effect (%) of A applied alone” value (Eleusine indica; A 75 g a.i./ha) of the same compound?
**A.** 38.5%

**Q.** And the “Control effect (%) of A applied alone” value (Eleusine indica; A 150 g a.i./ha)?
**A.** 69.2%

**Q.** And the “Control effect (%) of A applied alone” value (Sinapis arvensis; A 75 g a.i./ha)?
**A.** 41.1%

**Q.** And the “Control effect (%) of A applied alone” value (Sinapis arvensis; A 150 g a.i./ha)?
**A.** 65.9%

**Q.** What about the “Control effect (%) of A applied alone” value (Alopecurus japonicus; A 75 g a.i./ha) of the same compound?
**A.** 24.9%

**Q.** What about the “Control effect (%) of A applied alone” value (Alopecurus japonicus; A 150 g a.i./ha) of the same compound?
**A.** 47.2%

**Q.** Which “Control effect (%) of B applied alone in corresponding dose” value (“Control effect (%) of B applied alone” below) (Echinochloa oryzoides [1]; B 37.5 g a.i./ha) does the source give for `CC(C)Oc1cc(-n2nc(C(C)(C)C)oc2=O)c(Cl)cc1Cl` [oxadiazon] here?
**A.** 5.1%

**Q.** What about the “Control effect (%) of B applied alone” value (Echinochloa oryzoides [1]; B 75 g a.i./ha) of the same compound?
**A.** 10.3%

**Q.** And the “Control effect (%) of B applied alone” value (Echinochloa oryzoides [1]; B 150 g a.i./ha)?
**A.** 39.7%

**Q.** What about the “Control effect (%) of B applied alone” value (Echinochloa oryzoides [1]; B 300 g a.i./ha) of the same compound?
**A.** 50.8%

**Q.** And the “Control effect (%) of B applied alone” value (Echinochloa caudate; Table 99, 37.5 g a.i./ha)?
**A.** 6.0%

**Q.** What about the “Control effect (%) of B applied alone” value (Echinochloa caudate; Table 99, 75 g a.i./ha) of the same compound?
**A.** 22.1%

**Q.** And the “Control effect (%) of B applied alone” value (Echinochloa caudate; Table 99, 150 g a.i./ha)?
**A.** 39.5%

**Q.** And the “Control effect (%) of B applied alone” value (Echinochloa caudate; Table 99, 300 g a.i./ha)?
**A.** 63.0%

**Q.** What about the “Control effect (%) of B applied alone” value ([3]; oxadiazon 37.5 g a.i./ha) of the same compound?
**A.** 4.2%

**Q.** And the “Control effect (%) of B applied alone” value ([3]; oxadiazon 75 g a.i./ha)?
**A.** 25.4%

**Q.** And the “Control effect (%) of B applied alone” value ([3]; oxadiazon 150 g a.i./ha)?
**A.** 41.5%

**Q.** What about the “Control effect (%) of B applied alone” value ([3]; oxadiazon 300 g a.i./ha) of the same compound?
**A.** 64.2%

Source: patent publication US20220264878A1, “HERBICIDAL COMPOSITION CONTAINING R-TYPE PYRIDYLOXY CARBOXYLIC ACID DERIVATIVE AND USE THEREOF” (Qingdao Kingagroot Chemical Compound Co., Ltd., priority 2019, published 2022)
